From article PMC10037499, “High-Throughput Screen Reveals the Structure–Activity Relationship of the Antimicrobial Lasso Peptide Ubonodin” (ACS Central Science, 2023)
Where two headings read alike, the source gives them in different places. Where a SMILES comes first, the peptide text is derived from it.

How the values were obtained:
[1] = system: E. coli MC1061; experiment: Spot dilution assay of E. coli producing the ubonodin variant from pUboABC; type: cell-based; settings: variant in pUboABC backbone in E. coli MC1061, induction with 100 μM IPTG, ten-fold serial dilutions, biological duplicates
Protocol: Cultures of E. coli MC1061 transformed with the appropriate plasmids were grown. Aliquots of the cultures were sampled prior to and after induction with 100 μM IPTG, and 10-fold serial dilutions were plated. […]
All cloning was conducted by PCR amplification (using Q5 polymerase), restriction digestion, ligation, (using T4 DNA ligase), and transformation into chemically competent E. coli XL1-Blue. All cloning with a pUboABC backbone was done by plating transformation mixt ures onto Lysogeny Broth (LB) plates supplemented with 100 μg/mL ampicillin and 0.2% w/v glucose, and colonies were inoculated into LB media supplemented with 100 μ g/mL ampicillin and 0.2% w/v glucose to suppress any leaky expression. Cloning for all other plasmid constructs was done by plating transformation mixtures onto Lysogeny Broth (LB) plates supplemented with 100 μ g/ m L ampicillin, and colonies were inoculated into LB media supplemented with 100 μ g/ m L ampicillin.
Plasmids were extracted using Qiagen QIAprep Spin Miniprep Kit and sequence verified using Sanger sequencing. All primer sequences are listed in Table S7, and all plasmid constructs are […]
pUboABC was cloned by amplifying pWC99 with pQE-80 NheI For and pAT8 Nco I Rev.
The amplicon was ligated into pWC99 digested with Nhe I and Nco I. pUboBC was cloned by digesting pUboABC with Nh e I and Nco I and ligating that fragment into pQE-80 digested with Nhe I and Nco I. pUboABC S5H I16P and pUboABCD S5H I16P were cloned with overlap PCR using pWC99 as the template. One fragment was amplified with pQE-80 EcoRI For and S5H I16P Rev v2 and the second fragment was amplified with S5H I16P For v2 and pQE-80 HindII I Rev. […]
All remaining plasmid constructs were cloned with overlap PCR. One fragment was amplified with Xho I For Lib and a mutagenic reverse primer and the second fragment was amplified with NheI Rev Lib and a mutagenic forward primer. The templates and mutagenic […]
The fragments were joined with a second round of PCR and amplified with XhoI For Lib and NheI Rev Lib. Amplicons were ligated into the appropriate plasmid backbone digested with Xho I and Nhe I-HF. The plasmid backbones […]
The appropriate plasmid was transformed into electrocompetent E. coli MC1061, plated onto LB plates supplemented with 100 μ g/ m L ampicillin and 0.2% w/v glucose, and incubated at 30 °C for 16 hours. Colonies were inoculated into LB media supplemented with 100 μ g/ m L ampicillin and 0.2% w/v glucose and grown at 37 °C for 16 hours. These cultures were sub-cultured to an OD600 of 0.02 in 50 mL of LB media supplemented with 100 μg/mL ampicillin in a 250 mL flask. Once the OD600 reached 0.3, a 1 mL aliquot was sampled immediately prior to inducing the cultures with 100 μM isopropyl β-D-1-thiogalactopyranoside (IPTG). The aliquot was washed with Phosphate-Buffered Saline (PBS) two times and ten-fold serial dilutions were spotted onto LB plates supplemented with 100 μ g/ m L ampicillin and 0.2% w/v glucose. For each following timepoint, a 1 mL sample of each culture was withdrawn, washed with PBS two times, and ten- […]
fold serial dilutions were spotted onto LB plates supplemented with 100 μ g/m L ampicillin and 0.2% w/v glucose. Plates were incubated for 16 hours at 37 °C before imaging. […]
250 mL flask. Ten-fold serial dilutions of the culture were plated onto LB plates supplemented with 100 μ g/ m L ampicillin and 0.2% w/v glucose. The cultures were then grown at 37 °C, and once the OD600 reached 0.3, a 1 mL sample of the culture was withdrawn immediately before the cultures were induced with 10 μM or 100 μM IPTG and returned to grow longer. […]
All plates were incubated at 37 °C for 16 hours, after which the number of colonies was counted. Three biological replicates of this assay were done.
Co-Culture of E. coli MC1061 pUboABC and E. coli MC1061 pUboBC pUboABC (0.9 ng) and pUboBC (0.1 ng) were transformed into electrocompetent E. coli MC1061 with a one- hour outgrowth at 37 °C in LB media supplemented with 0.2% w/v glucose. […]

[2] = system: B. cenocepacia AU0756
Protocol: We proceeded to test the antimicrobial activity of the selected variants against two clinical isolates of the Bcc, B. cenocepacia AU0756 and B. cenocepacia AU24362, in broth microdilution assays. […] We revisited these measurements using broth microdilution assays following the Clinical & Laboratory Standards Institute (CLSI) standard.
Broth microdilution assays of the ubonodin variants were conducted using B. cenocepacia AU0756 and B. cenocepacia AU24362 with guidelines provided by the Clinical & Laboratory Standards Institute (CLSI).

[3] = system: RNA polymerase (RNAP) in E. coli MC1061; experiment: High-throughput growth-based screen with NGS (enrichment value) for RNA polymerase inhibition; type: cell-based; design: key to Experimental observation (enrichment observed in the screen): Dropout: Many variants inhibit RNAP so strongly that they cannot be detected by NGS after IPTG induction (referred to as dropout variants); settings: Table S4; variants whose MICs were tested
Protocol: The single mutant library was analyzed by NGS at multiple stages of sample preparation (Figure 2A) to track its evolution throughout the screen. Specifically, the frequency of each possible aa variant was computed at each stage by summing up counts for each distinct translated sequence and dividing by the total number of counts for all variants (eq S1, SI Methods). Since cells expressing an RNAP-inhibiting ubonodin variant will have growth defects relative to cells with a nontoxic variant, RNAP-inhibiting ubonodin variants are expected to decrease in frequency throughout the screen.
First, the naïve library (digested PCR products) was sequenced. These digested PCR products were cloned into the pUboABC backbone and transformed into a recA^– cloning strain. This plasmid library was sequenced again to capture any changes upon transformation of the library into E. coli. The change between the naïve library and the cloning transformation library was minimal (Figure S6A). This plasmid library was transformed into the screening strain MC1061, and the plasmid from resulting colonies was also sequenced. The library in MC1061 was grown up en masse in liquid culture to mid log phase, and a portion of the culture was plated. These colonies were scraped, then the plasmid was isolated and sequenced. Finally, the liquid culture was induced with IPTG, after which a portion of the culture was plated and the plasmid was isolated and sequenced. It is key to note that all samples from liquid cultures were plated prior to sequencing to ensure that only viable cells were sequenced. […] The rationale for sequencing at these five different stages was the possibility that leaky expression of uboA would affect the frequency of active mutants prior to IPTG induction. Indeed, we observed that the frequency of some uboA mutants dropped as soon as they were transformed into the screening strain MC1061 while the frequency of other mutants climbed (Figure 2B).
The behavior of the point variants (i.e., variants with a single aa substitution) was examined by calculating their enrichment values, the base-2 logarithm of the ratio of the variant’s frequency at a specific step of the screen to the variant’s frequency in the cloning transformation library (eq S3, Figure S6). The most relevant enrichment value for ubonodin activity is the comparison between the post-IPTG library and the cloning transformation library (Figure 2A). […] Many variants inhibit RNAP so strongly that they cannot be detected by NGS after IPTG induction (referred to as dropout variants). […] Variants with a stop codon mutation and variants containing an aa substitution at Tyr9 or Tyr27 (positions conserved in MccJ25 and shown to be crucial for RNAP inhibition, see Figure S7)[26] have positive enrichment values (1.2–1.7), serving as quality control for the screen (Figure 3A). Strikingly, 63% of point variants decreased in frequency, indicating a high tolerance to aa substitution. […] The positions with active variants are Asn11 through Ser24 in the loop and Asp3, Ser5, and Ala7 in the ring.
The single mutant and double mutant libraries were transformed into E. coli MC1061. Colonies were resuspended in media and subcultured into a larger culture. Aliquots of the cultures were sampled prior to and after induction with 10 μM IPTG and 100 μM IPTG and plated. After 16 h of incubation, the colonies were resuspended in media and plasmids were miniprepped.
Samples were PCR amplified with barcoded primers and combined such that double mutant library samples were over-represented compared to single mutant library samples to provide sufficient coverage of the larger double mutant library. Samples were sequenced using an Illumina MiSeq Micro 300nt and an Illumina NovaSeq 6000 Sequencing System. Downstream analysis of the data was conducted with Python, MATLAB, and R.
V to reduce genomic DNA contamination. One fragment was amplified with Xho I For Lib and a […]

| Compound | Inhibits Growth [1] | B. cenocepacia AU0756 MIC [2] [µM] | Experimental observation (enrichment observed in the screen) [3] | MIC [2] [µM] | MIC ([2]; broth microdilution, mass basis, strain not named in the sentence (values match AU0756)) [µg/mL] |
| --- | --- | --- | --- | --- | --- |
| CC[C@H](C)[C@@H]1NC(=O)[C@H](CO)NC(=O)CNC(=O)[C@H](CC(=O)O)NC(=O)CNC(=O)CNC(=O)CC[C@@H](C(=O)N[C@@H](Cc2ccc(O)cc2)C(=O)N[C@@H](Cc2ccccc2)C(=O)N[C@@H](CC(N)=O)C(=O)N[C@@H](Cc2ccccc2)C(=O)N2CCC[C@H]2C(=O)N[C@@H](CCSC)C(=O)N[C@@H](Cc2c[nH]cn2)C(=O)N[C@H](C(=O)N[C@@H](Cc2c[nH]cn2)C(=O)N[C@@H](CC(=O)O)C(=O)NCC(=O)N[C@@H](CCC(N)=O)C(=O)N[C@H](C(=O)N[C@@H](CCSC)C(=O)N[C@@H](CC(=O)O)C(=O)N[C@@H](CO)C(=O)NCC(=O)N[C@@H](Cc2ccc(O)cc2)C(=O)N[C@@H](Cc2ccc(O)cc2)C(=O)NCC(=O)O)[C@@H](C)CC)[C@@H](C)CC)NC(=O)[C@H](C)NC1=O [R12F W19G] (HELM PEPTIDE1{G.G.D.G.S.I.A.E.Y.F.N.F.P.M.H.I.H.D.G.Q.I.M.D.S.G.Y.Y.G}$PEPTIDE1,PEPTIDE1,1:R1-8:R3$$$V2.0) | Yes | >8 | Dropout |  |  |
| CC[C@H](C)[C@H](NC(=O)[C@H](Cc1c[nH]cn1)NC(=O)[C@H](CCSC)NC(=O)[C@@H]1CCCN1C(=O)[C@H](CCCNC(=N)N)NC(=O)[C@H](CC(N)=O)NC(=O)[C@H](Cc1ccccc1)NC(=O)[C@H](Cc1ccc(O)cc1)NC(=O)[C@@H]1CCC(=O)NCC(=O)NCC(=O)N[C@@H](CC(=O)O)C(=O)NCC(=O)N[C@@H](CO)C(=O)N[C@@H]([C@@H](C)CC)C(=O)N[C@@H](C)C(=O)N1)C(=O)NCC(=O)N[C@@H](CC(=O)O)C(=O)N[C@@H](Cc1c[nH]c2ccccc12)C(=O)N[C@@H](CCC(N)=O)C(=O)N[C@H](C(=O)N[C@@H](CCSC)C(=O)N[C@@H](CC(=O)O)C(=O)N[C@@H](CO)C(=O)NCC(=O)N[C@@H](Cc1ccc(O)cc1)C(=O)N[C@@H](Cc1ccc(O)cc1)C(=O)NCC(=O)O)[C@@H](C)CC [H17G] (HELM PEPTIDE1{G.G.D.G.S.I.A.E.Y.F.N.R.P.M.H.I.G.D.W.Q.I.M.D.S.G.Y.Y.G}$PEPTIDE1,PEPTIDE1,1:R1-8:R3$$$V2.0) | Yes | 0.125 to 0.25 | -6.5 | 0.125 to 0.25 | 0.4 to 0.8 |
| CC[C@H](C)[C@@H]1NC(=O)[C@H](CO)NC(=O)CNC(=O)[C@H](CC(=O)O)NC(=O)CNC(=O)CNC(=O)CC[C@@H](C(=O)N[C@@H](Cc2ccc(O)cc2)C(=O)N[C@@H](Cc2ccccc2)C(=O)N[C@@H](CC(N)=O)C(=O)N[C@@H](CCCNC(=N)N)C(=O)N2CCC[C@H]2C(=O)N[C@@H](CCSC)C(=O)N[C@@H](Cc2c[nH]cn2)C(=O)N[C@@H](CC(=O)O)C(=O)N[C@@H](Cc2c[nH]cn2)C(=O)N[C@@H](CC(=O)O)C(=O)N[C@@H](Cc2c[nH]c3ccccc23)C(=O)N[C@@H](CCC(N)=O)C(=O)N[C@H](C(=O)N[C@@H](CCSC)C(=O)N[C@@H](CC(=O)O)C(=O)N[C@@H](CO)C(=O)NCC(=O)N[C@@H](Cc2ccc(O)cc2)C(=O)N[C@@H](Cc2ccc(O)cc2)C(=O)NCC(=O)O)[C@@H](C)CC)NC(=O)[C@H](C)NC1=O [I16D] (HELM PEPTIDE1{G.G.D.G.S.I.A.E.Y.F.N.R.P.M.H.D.H.D.W.Q.I.M.D.S.G.Y.Y.G}$PEPTIDE1,PEPTIDE1,1:R1-8:R3$$$V2.0) | Yes | 0.5 to 2 | -6.2 |  |  |
